Common to all, as to type: in vivo
Experiment [1] relates to Amaranthus. Briefly: Post-emergence herbicidal action (Example B2). The note with it: 1 kg/ha, post-emergence at 2- to 3-leaf stage, evaluated 2 to 3 weeks later, rating scale 1-9 (1=total damage, 9=no action). Details: key: 1=total damage; 9=no action. The source says:
(§1) Post-emergence Herbicidal Action Monocot and dicot test plants are sown in standard soil in plastic pots. At the 2- to 3-leaf stage, the test plants are sprayed with test substances as an aqueous suspension [prepared from a wettable powder (Example F3, b) of WO 97/34485)] or as an emulsion [prepared from an emulsion concentrate (Example F1 c) of WO 97/34485)] in an optimal dosage (500 l of water/ha). The test plants are then cultivated in the greenhouse under optimum conditions. The test is evaluated 2 to 3 weeks later on a rating scale of 1-9 (1=total damage, 9=no action). Ratings of 1 to 4 (especially 1 to 3) denote good to very good herbicidal action.

Experiment [2] relates to Chenopodium. Nature of the experiment: Post-emergence herbicidal action (Example B2). Details: key: 1=total damage; 9=no action. The note with it: 1 kg/ha, post-emergence at 2- to 3-leaf stage, evaluated 2 to 3 weeks later, rating scale 1-9 (1=total damage, 9=no action).
Text: as §1

The test system of another experiment is Veronica. Briefly: Pre-emergence herbicidal action (Example B1). The note with it: 1 kg/ha, evaluated 4 weeks later, rating scale 1-9 (1=total damage, 9=no action). Details: key: 1=total damage; 9=no action. As to the method: (§2) Pre-emergence Herbicidal Action Monocot and dicot test plants are sown in standard soil in plastic pots. Immediately after sowing, the test substances are sprayed on as an aqueous suspension [prepared from a wettable powder (Example F3, b) of WO 97/34485)] or as an emulsion [prepared from an emulsion concentrate (Example F1 c) of WO 97/34485)] in an optimal dosage (500 l of water/ha). The test plants are then cultivated in the greenhouse under optimum conditions. The test is evaluated 4 weeks later on a rating scale of 1-9 (1=total damage, 9=no action). Ratings of 1 to 4 (especially 1 to 3) denote good to very good herbicidal action.

The test system of experiment [3] is Stellaria. Nature of the experiment: Pre-emergence herbicidal action (Example B1). Details: key: 1=total damage; 9=no action. The note with it: 1 kg/ha, evaluated 4 weeks later, rating scale 1-9 (1=total damage, 9=no action). Here is the method:
as §2

Experiment [4] concerns Amaranthus. Nature of the experiment: Pre-emergence herbicidal action (Example B1). Details: key: 1=total damage; 9=no action. The note with it: 1 kg/ha, evaluated 4 weeks later, rating scale 1-9 (1=total damage, 9=no action). As to the method: as §2
For the next experiment, the system named is Setaria. Nature of the experiment: Pre-emergence herbicidal action (Example B1). On the set-up: key: 1=total damage; 9=no action. The note with it: 1 kg/ha, evaluated 4 weeks later, rating scale 1-9 (1=total damage, 9=no action). As to the method: as §2
The subject of another experiment is Panicum. Nature of the experiment: Pre-emergence herbicidal action (Example B1). Details: key: 1=total damage; 9=no action. The note with it: 1 kg/ha, evaluated 4 weeks later, rating scale 1-9 (1=total damage, 9=no action). Here is the method: as §2
Experiment [5] deals with Chenopodium. Briefly: Pre-emergence herbicidal action (Example B1). Details: key: 1=total damage; 9=no action. The note with it: 1 kg/ha, evaluated 4 weeks later, rating scale 1-9 (1=total damage, 9=no action). As to the method: as §2
Another experiment concerns Digitaria. Briefly: Pre-emergence herbicidal action (Example B1). The note with it: 1 kg/ha, evaluated 4 weeks later, rating scale 1-9 (1=total damage, 9=no action). Details: key: 1=total damage; 9=no action. Here is the method: as §2
For experiment [6], the system named is Stellaria. Briefly: Post-emergence herbicidal action (Example B2). The note with it: 1 kg/ha, post-emergence at 2- to 3-leaf stage, evaluated 2 to 3 weeks later, rating scale 1-9 (1=total damage, 9=no action).
Text: as §1

Molecules are shown by their SMILES.

For the compound `COc1ccccc1OCC#Cc1cccc(CC#N)c1` [Compound 1.033], the “Postemergence test rating, Amaranthus” value with Amaranthus [1] is on record as 4. Also, the “Postemergence test rating, Chenopodium” value in the experiment with Chenopodium [2] was 2. Further, the “Preemergence test rating, Veronica” value in the experiment with Veronica is listed as 1. For the same compound, the “Preemergence test rating, Stellaria” value in the experiment on Stellaria [3] was found to be 1. Also, the “Preemergence test rating, Amaranthus” value with Amaranthus [4] was 1. Further, the “Preemergence test rating, Setaria” value in the experiment on Setaria was 2. Moreover, the “Preemergence test rating, Panicum” value with Panicum is given as 2. In the experiment on Chenopodium [5], the “Preemergence test rating, Chenopodium” value amounted to 1. In the experiment on Digitaria, the “Preemergence test rating, Digitaria” value worked out at 1. Further, the “Postemergence test rating, Stellaria” value in the experiment on Stellaria [6] turned out to be 2.

Regarding `COc1cc(C#N)ccc1OCC#Cc1ccc(Cl)cc1` [Compound 1.098], the “Postemergence test rating, Amaranthus” value in the experiment on Amaranthus [1] amounted to 1. In addition, the “Postemergence test rating, Chenopodium” value in the experiment with Chenopodium [2] is recorded as 1. For the same compound, in the experiment on Veronica, the “Preemergence test rating, Veronica” value was 1. In addition, the “Preemergence test rating, Stellaria” value in the experiment on Stellaria [3] is recorded as 1. Besides, in the experiment with Amaranthus [4], the “Preemergence test rating, Amaranthus” value was found to be 1. Also, in the experiment on Setaria, the “Preemergence test rating, Setaria” value was 1. Further, the “Preemergence test rating, Panicum” value in the experiment with Panicum worked out at 1. Also, in the experiment with Chenopodium [5], the “Preemergence test rating, Chenopodium” value was determined as 1. Moreover, the “Preemergence test rating, Digitaria” value in the experiment with Digitaria was 3. Moreover, the “Postemergence test rating, Stellaria” value with Stellaria [6] is 2.

For the compound `COc1cc(C#N)ccc1OCC#Cc1cccc(Br)c1` [Compound 1.104], the “Postemergence test rating, Amaranthus” value in the experiment on Amaranthus [1] was 2. Also, in the experiment on Chenopodium [2], the “Postemergence test rating, Chenopodium” value amounted to 2. Further, the “Preemergence test rating, Veronica” value in the experiment with Veronica worked out at 1. Further, in the experiment on Stellaria [3], the “Preemergence test rating, Stellaria” value was 1. In addition, in the experiment on Amaranthus [4], the “Preemergence test rating, Amaranthus” value stood at 1. In addition, the “Preemergence test rating, Setaria” value with Setaria is 4. Further, in the experiment on Panicum, the “Preemergence test rating, Panicum” value turned out to be 7. Besides, in the experiment on Chenopodium [5], the “Preemergence test rating, Chenopodium” value was 1. In the experiment with Digitaria, the “Preemergence test rating, Digitaria” value was 7. Also, the “Postemergence test rating, Stellaria” value with Stellaria [6] stood at 3.

For the compound `COc1cc(C#N)ccc1OCC#Cc1cccc(CC#N)c1` [Compound 1.109], the “Postemergence test rating, Amaranthus” value in the experiment with Amaranthus [1] is recorded as 1. For the same compound, the “Postemergence test rating, Chenopodium” value in the experiment on Chenopodium [2] is given as 4. In addition, in the experiment with Veronica, the “Preemergence test rating, Veronica” value is recorded as 1. Moreover, the “Preemergence test rating, Stellaria” value in the experiment on Stellaria [3] is 1. Further, in the experiment on Amaranthus [4], the “Preemergence test rating, Amaranthus” value turned out to be 1. Further, the “Preemergence test rating, Setaria” value in the experiment with Setaria is reported as 6. For the same compound, the “Preemergence test rating, Panicum” value in the experiment on Panicum was 1. The “Preemergence test rating, Chenopodium” value with Chenopodium [5] was determined as 1. Also, the “Preemergence test rating, Digitaria” value in the experiment with Digitaria is 1. In addition, the “Postemergence test rating, Stellaria” value with Stellaria [6] is 2.

For `COc1cc(CC#N)ccc1OCC#Cc1cccc(CC#N)c1` [Compound 1.168], the “Preemergence test rating, Veronica” value in the experiment on Veronica was 4. The “Preemergence test rating, Stellaria” value in the experiment on Stellaria [3] was found to be 1. In addition, in the experiment with Amaranthus [4], the “Preemergence test rating, Amaranthus” value worked out at 1. The “Preemergence test rating, Setaria” value in the experiment on Setaria is 4. Besides, the “Preemergence test rating, Panicum” value with Panicum came out at 1. Further, in the experiment on Chenopodium [5], the “Preemergence test rating, Chenopodium” value is recorded as 2. Besides, the “Preemergence test rating, Digitaria” value in the experiment with Digitaria is reported as 3.

Take `COc1cc([N+](=O)[O-])ccc1OCC#Cc1cccc(CC#N)c1` [Compound 1.198]: the “Postemergence test rating, Amaranthus” value in the experiment with Amaranthus [1] stood at 1. In addition, the “Postemergence test rating, Chenopodium” value in the experiment on Chenopodium [2] is 1. The “Preemergence test rating, Veronica” value with Veronica came to 1. For the same compound, the “Preemergence test rating, Stellaria” value in the experiment on Stellaria [3] is listed as 1. Besides, the “Preemergence test rating, Amaranthus” value in the experiment on Amaranthus [4] is given as 1. For the same compound, the “Preemergence test rating, Setaria” value with Setaria was 3. Moreover, the “Preemergence test rating, Panicum” value in the experiment on Panicum is on record as 1. Moreover, the “Preemergence test rating, Chenopodium” value with Chenopodium [5] turned out to be 1. Moreover, the “Preemergence test rating, Digitaria” value in the experiment with Digitaria was 1. In addition, the “Postemergence test rating, Stellaria” value in the experiment with Stellaria [6] stood at 3.

On to `COc1cc(C#N)ccc1OCC#Cc1cccc(Cl)c1` [Entry 1.095], for which the “Postemergence test rating, Amaranthus” value in the experiment with Amaranthus [1] came out at 1. For the same compound, in the experiment with Chenopodium [2], the “Postemergence test rating, Chenopodium” value was 2. Besides, the “Postemergence test rating, Stellaria” value with Stellaria [6] was found to be 2.

For the origin of these results see patent US6949669B2, “Organic compounds” (Syngenta Crop Protection, Inc., priority 2000, dated 2005).
